In US20250019772A1, “Method and System of Augmenting Cancer Therapy” (UNIVERSITY OF MIAMI, priority 2023, published 2025):

Columns and labels:
CD11+ BMDC's = experiment: Phagocytosis of irradiated MEFs treated with autophagy inhibitors by BMDC's (qPCR IFNβ1, Cxcl10); assay type: cell-based, mouse; conditions: BafA1 50 nM; 3-MA 2.5 mM
DNase II = experiment: Nuclease protection assay of Ccl5-DNA complex; assay type: biochemical; conditions: 1 unit DNase II, 37° C., 20 mins
ISD (dsDNA) = experiment: Binding of CCL5 to DNA (Picogreen, EMSA); conditions: ISD 10 μg/mL
Source text: SIEVES were isolated from irradiated (X-ray at 50 Gy for 3 days) WT, SKO, or CCL5 MEFs as well as B16-WT, B16-SKO or B16-CCL5KO cells by centrifugation. (A) Immunoblot analysis of centrifuged fractions using antibodies to STING, CD81, LC3, and Lamin A/C. (B) Size distribution evaluation of endosomal vesicles isolated from B16-WT. B16-SKO, and B16-CCL5 KO cells following irradiation with X-rays at 50 Gy. (C) Evaluation of number of endosomal vesicles in (B). (D) Immunoblotting analysis of endosomal/exosomal markers in endosomal vesicles in (B). (E) cGAMP ELISA analysis of WT DC. SKO DC, and CKO BMDC's treated with 30 μg of SIEVE's isolated from MEF WT, MEF SKO, MEF CKO or MEF CCL5 KO. (F) qPCR analysis of Cxcl10 in WT DC treated with SIEVE's from (E). […] (G) Tumor volumes were measured every other day for 2 weeks. […]
(B) B16-WT. […] DNA was purified with phenol-chloroform and CCL5 bound ISD was analyzed by qPCR analysis. (C) DNA in SIEVE's isolated from MEF-WT, SKO and CCL5 KO with or without X-ray at 50 Gy were measured by Nanodrop, Picogreen staining and visualized by agarose gel electrophoresis and dot blot analysis, according to an embodiment of the present invention; and
ISD90 was premixed with CCL5 and negative control molecules at different concentration in 100 μL and analyzed by a fluorimeter after staining with Picogreen. […]

WT macrophages (WTØ) = experiment: Phagocytosis of irradiated cells by WT macrophages (WTØ), Cxcl10 qPCR, with CCL5, CCL5 antibody or CCR inhibitors; assay type: cell-based, mouse; conditions: exogenously added recombinant CCL5 100 ng/mL 2 h, irradiated B16 cells 50 Gy
Protocol: (B) B16-WT or B16-SKO cells were irradiated using X-rays at 50 Gy for 3 days. 50 μL of the conditioned media from the cells was added to WTØ followed by adding the irradiated B16-WT and B16-SKO cells with the treated APC's for phagocytosis analysis. qPCR analysis was performed for Cxcl10 expression. (C) qPCR analysis of Cxcl10 in WTØ following the phagocytosis of irradiated MEF-WT cells in the presence of CCL5 antibody or IgG control (1 μg) at 100 ng/mL for 2 h prior to the phagocytosis. (D) MEF-WT cells were treated with a cocktail of 100 nM CCR inhibitors (Bx471, SB297006, AZD2098 and Maraviroc). The MEF-WT cells treated with the inhibitors (CCRi) were fed to WTØ for 6 h and Cxcl10 expression examined. (E) MEF WT, SKO or CCL5 KO were transfected with 3 μg/mL ISD for 6 h followed by measuring Ifnβ1, Cxcl10 or Ccl5 expression by qPCR analysis. (F) MEF WT, SKO or CCL5 KO were transfected with 3 μg/mL ISD for 6 h and then examined for STING activity by immunoblotting analysis. […] Immunofluorescence to detect STING translocation was monitored by confocal microscope, according to an embodiment of the present invention; […]
Macrophages were washed with 0.02% EDTA/PBS twice followed by incubation with 0.02% EDTA/PBS at 37C incubator for 10 mins. […] Percentage of phagocytosed cells were assessed by flow cytometry using a LSRII instrument (Becton Dickinson, USA).

| Compound | immunogenicity of irradiated MEF cells (ability to activate APC's) (CD11+ BMDC's) | protection against DNA degradation by DNaseII (DNase II) | association of Ccl5 with DNA (ISD (dsDNA)) | rescue of immunogenicity of Ccl5 KO or STING KO cells (WT macrophages (WTØ)) |
| --- | --- | --- | --- | --- |
| Cn1cnc(N)c2ncnc1-2 [3-MA, 3-Methyladenine] | suppressed the immunogenicity | – | – | – |
| Ccl5: recombinant CCL5 protein, exogenously added chemokine | – | conferred protection against DNA degradation | associated with | did not appear to significantly rescue the immunogenicity |
| CO/C1=C\C(C)=C\[C@@H](C)[C@@H](O)[C@@H](C)C/C(C)=C/C=C/[C@H](OC)[C@@H]([C@@H](C)[C@@H](O)[C@H](C)[C@@]2(O)C[C@@H](O)[C@H](C)[C@@H](C(C)C)O2)OC1=O [BafA1, bafilomycin A1] | suppressed the immunogenicity | – | – | – |
